In assay [1] the target is T1, Sphingomyelinase from human placenta (human L-ASM) (Homo sapiens, UniProt P17405).
T1 sequence (P17405 47-631): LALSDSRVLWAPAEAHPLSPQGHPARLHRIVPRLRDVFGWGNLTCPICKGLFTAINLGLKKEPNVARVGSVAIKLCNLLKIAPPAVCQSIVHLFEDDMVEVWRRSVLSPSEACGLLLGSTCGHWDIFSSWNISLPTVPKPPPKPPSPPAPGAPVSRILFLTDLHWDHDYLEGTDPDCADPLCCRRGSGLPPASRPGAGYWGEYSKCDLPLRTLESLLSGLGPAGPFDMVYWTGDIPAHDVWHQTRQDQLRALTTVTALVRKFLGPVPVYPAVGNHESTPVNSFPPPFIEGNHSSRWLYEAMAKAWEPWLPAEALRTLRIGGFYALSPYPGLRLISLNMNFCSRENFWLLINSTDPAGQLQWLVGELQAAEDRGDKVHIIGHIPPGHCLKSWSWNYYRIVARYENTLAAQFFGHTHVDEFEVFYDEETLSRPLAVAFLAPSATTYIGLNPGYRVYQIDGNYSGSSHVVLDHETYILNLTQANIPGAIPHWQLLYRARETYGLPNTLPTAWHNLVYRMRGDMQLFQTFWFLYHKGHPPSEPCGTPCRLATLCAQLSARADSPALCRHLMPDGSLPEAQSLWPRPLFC
Nature of the assay: SMase assay with natural substrate sphingomyelin. It is filed as biochemical. Conditions: maximal inhibition; for Maximal resp., natural substrate (pH 5.0): pH 5.0 buffer; for Maximal resp., natural substrate (pH 6.5): pH 6.5 buffer.

Assay [2] addresses T1, Sphingomyelinase from human placenta (human L-ASM). The experiment in a line: SMase assay using HMU-PC profluorescence substrate. It is filed as biochemical. Conditions: maximal inhibition, artificial substrate HMU-PC.

The structures appear in SMILES notation.

With `O=c1c(O)c(-c2cccs2)oc2ccccc12` [MLS000097140], in assay [1], the “Maximal resp., natural substrate (pH 5.0)” value worked out at 81.7% and the “Maximal resp., natural substrate (pH 6.5)” value is reported as 82.7%. Besides, the “Maximal resp., HMU-PC substrate (pH 5.0)” value in assay [2] is given as 6.2%.

With `CCS(=O)(=O)C1=NN2C(=N)/C(=C\c3ccc(OC(=O)c4ccco4)cc3)C(=O)N=C2S1` [MLS000950682], in assay [1], the “Maximal resp., natural substrate (pH 5.0)” value is given as 43.4% and the “Maximal resp., natural substrate (pH 6.5)” value is given as 71.2%. In addition, in assay [2], the “Maximal resp., HMU-PC substrate (pH 5.0)” value is recorded as 79.0%.

`O=S(=O)(Nc1ccc(N=Nc2ccc(O)c3ccccc23)cc1)c1ccccc1` [MLS000707545]: in assay [1], the “Maximal resp., natural substrate (pH 5.0)” value amounted to 72.0% and the “Maximal resp., natural substrate (pH 6.5)” value was found to be 77.2%. Also, in assay [2], the “Maximal resp., HMU-PC substrate (pH 5.0)” value is listed as 93.4%.

In the case of `COc1ccc(C2=NN(C(=O)COC(=O)c3ccc(S(C)(=O)=O)c([N+](=O)[O-])c3)C(c3ccco3)C2)cc1` (stereo not drawn) [MLS002248315], in assay [1], the “Maximal resp., natural substrate (pH 5.0)” value was 0.8% and the “Maximal resp., natural substrate (pH 6.5)” value was found to be 8.6%. For the same molecule, the “Maximal resp., HMU-PC substrate (pH 5.0)” value in assay [2] is 31.4%.

On to `Clc1ccc(SCCOCCN2CCCCCC2)cc1.O=C(O)C(=O)O` [MLS001164567], for which, in assay [1], the “Maximal resp., natural substrate (pH 5.0)” value turned out to be 97.8% and the “Maximal resp., natural substrate (pH 6.5)” value is recorded as 100.7%. Moreover, the “Maximal resp., HMU-PC substrate (pH 5.0)” value in assay [2] is on record as 15.8%.

`COc1cc(C(=O)Nc2scc(-c3ccc(Br)cc3)c2C(=O)O)cc(OC)c1OC` [MLS001164606]: in assay [1], the “Maximal resp., natural substrate (pH 5.0)” value stood at 9.1% and the “Maximal resp., natural substrate (pH 6.5)” value amounted to 26.8%. The “Maximal resp., HMU-PC substrate (pH 5.0)” value in assay [2] turned out to be 51.8%.

Consider `COC(=O)C1=C(C)N(Cc2ccc(C)cc2)C(=O)/C1=C\c1ccc(O)c(OC)c1` [MLS000574110], for which, in assay [1], the “Maximal resp., natural substrate (pH 5.0)” value is 79.1% and the “Maximal resp., natural substrate (pH 6.5)” value came to 84.8%. For the same molecule, the “Maximal resp., HMU-PC substrate (pH 5.0)” value in assay [2] was found to be 82.1%.

In the case of `O=C1CC(c2ccccc2)CC(=O)C1CS(=O)(=O)c1ccccc1` (stereo not drawn) [MLS000720877], in assay [1], the “Maximal resp., natural substrate (pH 5.0)” value was determined as 31.1% and the “Maximal resp., natural substrate (pH 6.5)” value is listed as 61.6%. Moreover, the “Maximal resp., HMU-PC substrate (pH 5.0)” value in assay [2] amounted to 99.2%.

As for `S=c1nc(C2CC2)[nH]c2ccccc12` [MLS000097294], in assay [1], the “Maximal resp., natural substrate (pH 5.0)” value was determined as 103.2% and the “Maximal resp., natural substrate (pH 6.5)” value is on record as 104.4%. The “Maximal resp., HMU-PC substrate (pH 5.0)” value in assay [2] stood at 99.1%.

The record behind these values is article PMC4138601 (Analytical and bioanalytical chemistry, 2012).
